Calls of active or inactive are those of the source. The rule behind the calls is not given here.
Experiments:
SU-DHL-2 = test: Antiproliferative activity against human SUDHL2 cells expressing EZH2 mutant assessed as inhibition of cell proliferation incubated for 6 days by CCK8 assay; type: functional, cell-based; details: SU-DHL-2, 144 h
Pfeiffer [1] = test: Downregulation of H3K27me3 level in human Pfeiffer cells at 1 uM incubated for 96 hrs followed by compound washout measured after 120 hrs by Western blot analysis; type: functional, cell-based; details: time 216.0 hrs
[2] = AUC (0 to last) in Sprague-Dawley rat at 3 mg/kg, iv measured for 0.25 to 24 hrs by LC-MS/MS analysis; type: ADME, organism-based; set-up: time 0.25-24 hrs, dose 3 mg/kg, route iv; details: in vivo
SU-DHL10 = test: Antiproliferative activity against human SU-DHL-10 cells expressing EZH2 mutant assessed as inhibition of cell proliferation incubated for 6 days by CCK8 assay; type: functional, cell-based; details: time 6.0 day
RL = test: Antiproliferative activity against human RL cells expressing EZH2 mutant assessed as inhibition of cell proliferation incubated for 6 days by CCK8 assay; type: functional, cell-based; details: time 6.0 day
WSUDLCL2 = test: Antiproliferative activity against human WSUDLCL2 cells expressing wild-type EZH2 assessed as inhibition of cell proliferation incubated for 6 days by CCK8 assay; type: functional, cell-based; details: WSUDLCL2, 144 h
U2932 = test: Antiproliferative activity against human U2932 cells expressing wild-type EZH2 assessed as inhibition of cell proliferation incubated for 6 days by CCK8 assay; type: functional, cell-based; details: U2932, 144 h
KARPAS-422 [3] = test: Downregulation of H2K27me3 level in human KARPAS-422 cells incubated for 48 to 96 hrs by Western blot analysis; type: functional, cell-based; details: dose 0.05-1 µM, time 48-96 hrs
[4] = target: Histone-lysine N-methyltransferase NSD2 (Homo sapiens) (UniProt O96028); test: Inhibition of NSD2 (unknown origin) using histone peptide/SAM as substrate at 10 uM by AlphaLisa assay
[5] = AUC (0 to last) in Sprague-Dawley rat at 10 mg/kg, po measured for 0.25 to 24 hrs by LC-MS/MS analysis; type: ADME, organism-based; set-up: dose 10 mg/kg, time upper 24 hrs, time lower 0.25 hrs, route po; details: in vivo
[6] = target: T1, Histone-lysine N-methyltransferase 2B (Homo sapiens, UniProt Q9UMN6); test: Inhibition of MLL4 (unknown origin) using histone peptide/SAM as substrate at 10 uM by HTRF assay
[7] = Bioavailability in Sprague-Dawley rat at 10 mg/kg, po measured for 0.25 to 24 hrs by LC-MS/MS analysis; type: ADME, organism-based; details: in vivo, time 0.25-24 hrs
OPM-2 = test: Antiproliferative activity against human OPM-2 cells expressing wild-type EZH2 assessed as inhibition of cell proliferation incubated for 6 days by CCK8 assay; type: functional, cell-based; details: OPM-2, 144 h
Pfeiffer [8] = test: Antiproliferative activity against human Pfeiffer cells expressing EZH2 […] mutant assessed as inhibition of cell proliferation incubated for 6 days by CCK8 assay; type: functional, cell-based; details: 144 h
[9] = Cmax in Sprague-Dawley rat at 10 mg/kg, po measured for 0.25 to 24 hrs by LC-MS/MS analysis; type: ADME, organism-based; set-up: time lower 0.25 hrs, dose 10 mg/kg, time upper 24 hrs, route po; details: in vivo
[10] = Half life in Sprague-Dawley rat at 3 mg/kg, iv measured for 0.25 to 24 hrs by LC-MS/MS analysis; type: ADME, organism-based; details: in vivo, time 0.25-24 hrs
[11] = target: T2, DNA (cytosine-5)-methyltransferase 1 (Homo sapiens, UniProt P26358); test: Inhibition of DNMT1 (unknown origin) using histone peptide/SAM as substrate by AlphaLisa assay
T2 sequence (P26358 whole entry): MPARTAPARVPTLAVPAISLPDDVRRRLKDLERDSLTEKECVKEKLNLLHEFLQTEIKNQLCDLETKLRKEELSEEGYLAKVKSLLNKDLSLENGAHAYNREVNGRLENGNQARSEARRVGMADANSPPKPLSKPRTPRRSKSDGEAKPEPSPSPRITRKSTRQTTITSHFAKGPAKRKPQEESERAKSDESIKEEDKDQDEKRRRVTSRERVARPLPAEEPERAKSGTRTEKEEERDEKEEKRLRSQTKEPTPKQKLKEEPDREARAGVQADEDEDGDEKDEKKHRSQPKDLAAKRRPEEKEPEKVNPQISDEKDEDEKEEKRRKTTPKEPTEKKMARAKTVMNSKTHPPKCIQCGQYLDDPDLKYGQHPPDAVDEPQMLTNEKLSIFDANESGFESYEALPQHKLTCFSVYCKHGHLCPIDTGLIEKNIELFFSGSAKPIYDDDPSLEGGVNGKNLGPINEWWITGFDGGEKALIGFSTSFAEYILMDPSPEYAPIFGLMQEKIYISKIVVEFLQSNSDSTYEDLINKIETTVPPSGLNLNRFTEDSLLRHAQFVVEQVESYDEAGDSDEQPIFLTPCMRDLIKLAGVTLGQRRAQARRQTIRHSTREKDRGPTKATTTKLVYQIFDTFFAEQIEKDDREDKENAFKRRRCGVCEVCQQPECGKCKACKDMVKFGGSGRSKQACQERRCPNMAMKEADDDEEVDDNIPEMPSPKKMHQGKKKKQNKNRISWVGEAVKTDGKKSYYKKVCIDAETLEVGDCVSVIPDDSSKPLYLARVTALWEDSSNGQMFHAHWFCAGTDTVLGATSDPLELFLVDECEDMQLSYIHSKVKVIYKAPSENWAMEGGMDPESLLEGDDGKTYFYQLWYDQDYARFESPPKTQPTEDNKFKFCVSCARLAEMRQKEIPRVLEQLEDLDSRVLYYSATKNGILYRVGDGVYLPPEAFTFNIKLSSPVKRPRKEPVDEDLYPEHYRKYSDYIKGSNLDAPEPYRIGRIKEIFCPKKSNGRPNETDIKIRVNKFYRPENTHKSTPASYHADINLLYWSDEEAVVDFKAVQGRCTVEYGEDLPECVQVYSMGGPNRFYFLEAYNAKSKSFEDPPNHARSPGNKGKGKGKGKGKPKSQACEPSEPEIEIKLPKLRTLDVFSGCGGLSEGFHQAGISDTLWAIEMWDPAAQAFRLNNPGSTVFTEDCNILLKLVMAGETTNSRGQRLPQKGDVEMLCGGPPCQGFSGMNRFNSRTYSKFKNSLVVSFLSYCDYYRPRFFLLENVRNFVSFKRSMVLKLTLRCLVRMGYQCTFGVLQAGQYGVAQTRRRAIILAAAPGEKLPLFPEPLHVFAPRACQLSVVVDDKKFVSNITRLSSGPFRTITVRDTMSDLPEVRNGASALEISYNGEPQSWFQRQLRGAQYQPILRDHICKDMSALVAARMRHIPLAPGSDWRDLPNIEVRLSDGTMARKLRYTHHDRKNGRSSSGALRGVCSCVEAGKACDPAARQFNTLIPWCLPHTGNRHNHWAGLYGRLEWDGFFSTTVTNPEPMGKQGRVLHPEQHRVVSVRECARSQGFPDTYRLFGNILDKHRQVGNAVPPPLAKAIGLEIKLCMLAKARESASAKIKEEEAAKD

[12] = target: Histone-lysine N-methyltransferase EHMT1 (Homo sapiens, UniProt Q9H9B1); test: Inhibition of GLP (unknown origin) using histone peptide/SAM as substrate by AlphaLisa assay
[13] = target: T1, Histone-lysine N-methyltransferase 2B; test: Inhibition of MLL4 (unknown origin) using histone peptide/SAM as substrate by HTRF assay
[14] = target: T2, DNA (cytosine-5)-methyltransferase 1; test: Inhibition of DNMT1 (unknown origin) using histone peptide/SAM as substrate at 10 uM by AlphaLisa assay
DB = test: Antiproliferative activity against human DB cells expressing wild-type EZH2 assessed as inhibition of cell proliferation incubated for 6 days by CCK8 assay; type: functional, cell-based; details: 144 h
Pfeiffer [15] = test: Downregulation of H2K27me3 level in human Pfeiffer cells at 0.05 to 1 uM by Western blot analysis; type: functional, cell-based; details: dose 0.05-1 µM, time 48-96 hrs, TDE = time-dependent effect
Pfeiffer [16] = test: Downregulation of H2K27me3 level in human Pfeiffer cells incubated for 48 to 96 hrs by Western blot analysis; type: functional, cell-based; details: dose 0.05-1 µM, time 48-96 hrs
[17] = Metabolic stability in human liver microsomes assessed as half life preincubated for 10 mins followed by NADPH addition measured upto 60 mins by LC-MS/MS analysis; type: ADME, Microsome; details: time < 70 min
KARPAS-422 [18] = test: Downregulation of H2K27me3 level in human KARPAS-422 cells at 0.05 to 1 uM by Western blot analysis; type: functional, cell-based; details: dose 0.05-1 µM, time 48-96 hrs, TDE = time-dependent effect
[19] = target: T3, Histone-lysine N-methyltransferase 2A (Homo sapiens, UniProt Q03164); test: Inhibition of MLL1 (unknown origin) using histone peptide/SAM as substrate at 10 uM by HTRF assay
[20] = target: T4, Protein arginine N-methyltransferase 5 (Homo sapiens, UniProt O14744); test: Inhibition of PRMT5 (unknown origin) using histone peptide/SAM as substrate at 10 uM by AlphaLisa assay
T4 sequence (O14744 whole entry): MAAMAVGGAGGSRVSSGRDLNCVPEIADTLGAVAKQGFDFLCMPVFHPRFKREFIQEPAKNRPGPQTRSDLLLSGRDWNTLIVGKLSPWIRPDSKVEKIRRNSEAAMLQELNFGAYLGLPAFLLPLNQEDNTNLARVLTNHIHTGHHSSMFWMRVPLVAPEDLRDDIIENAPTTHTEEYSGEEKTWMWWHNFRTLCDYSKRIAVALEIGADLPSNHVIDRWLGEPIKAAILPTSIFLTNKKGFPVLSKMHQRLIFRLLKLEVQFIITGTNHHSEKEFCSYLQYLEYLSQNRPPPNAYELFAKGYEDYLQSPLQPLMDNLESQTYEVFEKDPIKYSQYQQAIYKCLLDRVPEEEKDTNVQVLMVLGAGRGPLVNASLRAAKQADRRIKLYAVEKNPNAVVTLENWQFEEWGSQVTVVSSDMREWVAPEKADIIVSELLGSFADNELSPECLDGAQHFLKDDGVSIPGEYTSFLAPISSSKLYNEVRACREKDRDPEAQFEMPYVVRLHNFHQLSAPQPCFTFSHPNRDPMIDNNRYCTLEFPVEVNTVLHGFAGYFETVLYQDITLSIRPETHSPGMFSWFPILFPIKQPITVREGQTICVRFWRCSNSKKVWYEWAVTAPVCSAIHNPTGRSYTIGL

[21] = Antiproliferative activity against human WILL-1 cells expressing wild-type EZH2 assessed as inhibition of cell proliferation incubated for 6 days by CCK8 assay; type: functional, cell-based; details: WILL-1, 144 h
KARPAS-422 [22] = test: Antiproliferative activity against human KARPAS-422 cells expressing EZH2 mutant assessed as inhibition of cell proliferation incubated for 6 days by CCK8 assay; type: functional, cell-based; details: time 6.0 day
[23] = target: T5, Protein arginine N-methyltransferase 1 (Homo sapiens, UniProt Q99873); test: Inhibition of PRMT1 (unknown origin) using histone peptide/SAM as substrate at 10 uM by AlphaLisa assay
Karpas-1106P = test: Antiproliferative activity against human KARPAS-1106P cells expressing wild-type EZH2 assessed as inhibition of cell proliferation incubated for 6 days by CCK8 assay; type: functional, cell-based; details: time 6.0 day
[24] = target: Histone-arginine methyltransferase CARM1 (Homo sapiens, UniProt Q86X55); test: Inhibition of PRMT4 (unknown origin) using histone peptide/SAM as substrate by AlphaLisa assay
Pfeiffer [25] = test: Antiproliferative activity against human Pfeiffer cells expressing EZH2 mutant assessed as inhibition of cell proliferation incubated for 6 days by CCK8 assay; type: functional, cell-based; details: time 6.0 day
[26] = target: T6, Histone-lysine N-methyltransferase, H3 lysine-36 specific (Homo sapiens, UniProt Q96L73); test: Inhibition of NSD1 (unknown origin) using histone peptide/SAM as substrate by AlphaLisa assay
T6 sequence (Q96L73 whole entry): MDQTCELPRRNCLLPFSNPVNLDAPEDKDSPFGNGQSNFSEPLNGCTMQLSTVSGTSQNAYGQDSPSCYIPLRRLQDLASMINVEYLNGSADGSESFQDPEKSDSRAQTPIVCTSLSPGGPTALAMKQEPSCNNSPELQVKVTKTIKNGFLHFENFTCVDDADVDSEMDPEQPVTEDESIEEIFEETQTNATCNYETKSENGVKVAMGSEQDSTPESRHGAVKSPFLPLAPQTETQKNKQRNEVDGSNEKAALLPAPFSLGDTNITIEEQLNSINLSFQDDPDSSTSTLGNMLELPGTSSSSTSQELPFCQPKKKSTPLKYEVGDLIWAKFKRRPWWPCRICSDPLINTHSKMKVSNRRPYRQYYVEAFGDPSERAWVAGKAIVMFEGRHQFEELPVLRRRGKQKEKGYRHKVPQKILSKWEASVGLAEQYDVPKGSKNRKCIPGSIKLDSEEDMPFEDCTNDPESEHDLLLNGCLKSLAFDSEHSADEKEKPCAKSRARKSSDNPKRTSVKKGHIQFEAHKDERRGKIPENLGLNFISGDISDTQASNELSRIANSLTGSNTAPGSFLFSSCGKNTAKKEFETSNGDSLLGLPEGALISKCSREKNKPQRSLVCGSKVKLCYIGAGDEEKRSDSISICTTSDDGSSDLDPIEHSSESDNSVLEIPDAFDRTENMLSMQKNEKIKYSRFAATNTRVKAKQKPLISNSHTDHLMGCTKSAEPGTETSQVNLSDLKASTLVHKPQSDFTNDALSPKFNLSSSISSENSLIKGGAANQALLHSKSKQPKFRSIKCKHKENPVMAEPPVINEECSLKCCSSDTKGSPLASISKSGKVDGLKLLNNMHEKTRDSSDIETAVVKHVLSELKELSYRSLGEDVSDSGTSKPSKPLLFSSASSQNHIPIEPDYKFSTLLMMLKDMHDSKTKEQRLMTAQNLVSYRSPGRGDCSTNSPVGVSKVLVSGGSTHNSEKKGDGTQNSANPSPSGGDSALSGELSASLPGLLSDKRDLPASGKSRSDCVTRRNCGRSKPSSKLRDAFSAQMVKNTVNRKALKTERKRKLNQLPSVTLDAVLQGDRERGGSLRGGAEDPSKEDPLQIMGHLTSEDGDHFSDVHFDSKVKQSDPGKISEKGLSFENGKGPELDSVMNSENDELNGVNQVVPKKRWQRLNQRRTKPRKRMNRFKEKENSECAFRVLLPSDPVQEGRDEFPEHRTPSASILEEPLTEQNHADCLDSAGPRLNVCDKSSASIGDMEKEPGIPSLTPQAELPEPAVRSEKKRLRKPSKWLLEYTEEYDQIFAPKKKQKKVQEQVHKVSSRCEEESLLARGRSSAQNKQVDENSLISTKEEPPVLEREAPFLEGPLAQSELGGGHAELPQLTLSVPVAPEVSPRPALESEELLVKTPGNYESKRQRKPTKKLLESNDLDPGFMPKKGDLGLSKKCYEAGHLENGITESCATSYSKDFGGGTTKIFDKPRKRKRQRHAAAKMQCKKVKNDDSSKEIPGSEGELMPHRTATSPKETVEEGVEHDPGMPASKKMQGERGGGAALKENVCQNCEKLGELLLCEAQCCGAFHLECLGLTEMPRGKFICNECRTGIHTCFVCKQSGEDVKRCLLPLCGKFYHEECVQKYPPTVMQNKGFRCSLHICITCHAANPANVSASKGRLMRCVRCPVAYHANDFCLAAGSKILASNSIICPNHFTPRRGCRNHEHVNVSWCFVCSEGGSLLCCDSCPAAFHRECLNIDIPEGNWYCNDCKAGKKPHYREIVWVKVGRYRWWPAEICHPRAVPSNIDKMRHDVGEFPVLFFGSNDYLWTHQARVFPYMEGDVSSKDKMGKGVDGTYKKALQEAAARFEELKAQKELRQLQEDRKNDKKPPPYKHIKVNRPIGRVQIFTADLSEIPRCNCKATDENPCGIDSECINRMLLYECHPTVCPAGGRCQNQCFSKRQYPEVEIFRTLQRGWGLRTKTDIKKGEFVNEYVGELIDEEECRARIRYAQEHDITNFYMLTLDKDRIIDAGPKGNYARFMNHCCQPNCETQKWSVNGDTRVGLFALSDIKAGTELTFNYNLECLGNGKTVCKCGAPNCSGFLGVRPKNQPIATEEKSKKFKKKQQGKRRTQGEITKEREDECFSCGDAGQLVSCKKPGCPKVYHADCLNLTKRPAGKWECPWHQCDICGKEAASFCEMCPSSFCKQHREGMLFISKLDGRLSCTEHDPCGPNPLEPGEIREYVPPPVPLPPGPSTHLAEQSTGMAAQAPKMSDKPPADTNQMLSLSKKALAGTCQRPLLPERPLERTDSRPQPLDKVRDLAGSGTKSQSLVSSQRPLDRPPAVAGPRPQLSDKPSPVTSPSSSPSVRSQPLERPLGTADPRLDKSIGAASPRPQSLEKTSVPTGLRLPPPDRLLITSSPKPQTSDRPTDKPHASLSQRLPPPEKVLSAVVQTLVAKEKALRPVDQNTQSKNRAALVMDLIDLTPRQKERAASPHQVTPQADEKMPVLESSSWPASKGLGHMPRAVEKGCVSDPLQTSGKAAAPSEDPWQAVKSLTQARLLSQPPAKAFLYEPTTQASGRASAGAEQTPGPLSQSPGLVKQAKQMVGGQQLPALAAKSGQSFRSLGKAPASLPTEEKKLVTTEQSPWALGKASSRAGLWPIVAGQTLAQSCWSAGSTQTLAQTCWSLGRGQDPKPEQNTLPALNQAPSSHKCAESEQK

[27] = target: Histone-lysine N-methyltransferase EHMT2 (Homo sapiens) (UniProt Q96KQ7); test: Inhibition of G9a (unknown origin) using histone peptide/SAM as substrate at 10 uM by AlphaLisa assay
[28] = target: T5, Protein arginine N-methyltransferase 1; test: Inhibition of PRMT1 (unknown origin) using histone peptide/SAM as substrate by AlphaLisa assay
HT = test: Antiproliferative activity against human HT cells expressing wild-type EZH2 assessed as inhibition of cell proliferation incubated for 6 days by CCK8 assay; type: functional, cell-based; details: time 6.0 day
[29] = Apparent permeability in human Caco-2 cells at 20 uM measured for 35 to 95 mins by LC-MS/MS analysis; type: ADME, cell-based; details: time 35-95 min
[30] = target: Histone-lysine N-methyltransferase EHMT2 (Homo sapiens, UniProt Q96KQ7); test: Inhibition of G9a (unknown origin) using histone peptide/SAM as substrate by AlphaLisa assay
[31] = target: T3, Histone-lysine N-methyltransferase 2A; test: Inhibition of MLL1 (unknown origin) using histone peptide/SAM as substrate by HTRF assay
[32] = target: Histone-lysine N-methyltransferase EHMT1 (Homo sapiens) (UniProt Q9H9B1); test: Inhibition of GLP (unknown origin) using histone peptide/SAM as substrate at 10 uM by AlphaLisa assay
[33] = target: Histone-lysine N-methyltransferase NSD2 (Homo sapiens, UniProt O96028); test: Inhibition of NSD2 (unknown origin) using histone peptide/SAM as substrate by AlphaLisa assay
[34] = target: T6, Histone-lysine N-methyltransferase, H3 lysine-36 specific; test: Inhibition of NSD1 (unknown origin) using histone peptide/SAM as substrate at 10 uM by AlphaLisa assay
Pfeiffer [35] = test: Effect on EZH2 level in human Pfeiffer cells at 0.05 to 1 uM incubated for 48 to 96 hrs by Western blot analysis; type: functional, cell-based; details: dose 0.05-1 µM, time 48-96 hrs
KARPAS-422 [36] = test: Antiproliferative activity against human KARPAS-422 cells expressing EZH2 Y641N mutant assessed as inhibition of cell proliferation incubated for 6 days by CCK8 assay; type: functional, cell-based; details: KARPAS-422, 144 h
Pfeiffer [37] = test: Effect on total H3 level in human Pfeiffer cells at 0.05 to 1 uM incubated for 48 to 96 hrs by Western blot analysis; type: functional, cell-based; details: dose 0.05-1 µM, time 48-96 hrs
[38] = target: T4, Protein arginine N-methyltransferase 5; test: Inhibition of PRMT5 (unknown origin) using histone peptide/SAM as substrate by AlphaLisa assay
[39] = target: Histone-arginine methyltransferase CARM1 (Homo sapiens) (UniProt Q86X55); test: Inhibition of PRMT4 (unknown origin) using histone peptide/SAM as substrate at 10 uM by AlphaLisa assay

Compound: C=CC(=O)NCc1cc(C(=O)NCc2c(SC)cc(C)[nH]c2=O)c(C)c(N(CC)C2CCOCC2)c1
- IC50 (SU-DHL-2): > 3 µM
- Activity (Pfeiffer [1]): Active
- AUC(0-t) [2]: 4890 ng·h/mL
- inhibition (SU-DHL10): Active
- inhibition (RL): Active
- IC50 (WSUDLCL2): > 3 µM
- IC50 (U2932): > 3 µM
- Activity (KARPAS-422 [3]): Dose-Dependent Effect
- inhibition [4]: inactive
- AUC(0-t) [5]: 8.16 ng·h/mL
- inhibition [6]: inactive
- bioavailability [7]: 0.05%
- IC50 (OPM-2): > 3 µM
- IC50 (Pfeiffer [8]): 0.022 µM
- Cmax [9]: 29.5 ng/mL
- t1/2 [10]: 16.8 min
- IC50 [11]: > 10 µM
- IC50 [12]: > 10 µM
- IC50 [13]: > 10 µM
- inhibition [14]: inactive
- IC50 (DB): > 3 µM
- Activity (Pfeiffer [15]): Tde
- Activity (Pfeiffer [16]): Dose-Dependent Effect
- half-life [17]: 33.8 min
- Activity (KARPAS-422 [18]): Tde
- inhibition [19]: inactive
- inhibition [20]: inactive
- IC50 [21]: > 3 µM
- inhibition (KARPAS-422 [22]): Active
- inhibition [23]: inactive
- inhibition (Karpas-1106P): Active
- IC50 [24]: > 10 µM
- inhibition (Pfeiffer [25]): Active
- IC50 [26]: > 10 µM
- inhibition [27]: inactive
- IC50 [28]: > 10 µM
- inhibition (HT): Active
- Papp at 20 µM [29]: 0.052 ×10⁻⁶ cm/s
- IC50 [30]: > 10 µM
- IC50 [31]: > 10 µM
- inhibition [32]: inactive
- IC50 [33]: > 10 µM
- inhibition [34]: inactive
- Activity (Pfeiffer [35]): inactive
- IC50 (KARPAS-422 [36]): 0.064 µM
- Activity (Pfeiffer [37]): inactive
- IC50 [38]: > 10 µM
- inhibition [39]: inactive
